Legend:
[1] = system: primary cultures (neurons) from cerebral cortices of fetal Wistar rats; assay: Biological Test 2: antagonism of the neuroprotective effect by MTA treatment (MTT); format: cell-based, rat; conditions: 0.75 mM MTA added 30 minutes before test compound, glutamate
Experimental: This biological test is performed to determine whether the neuroprotective effect of the test compounds is due to the activation of receptors of physiological active substances or not, by using antagonistic test for neutralizing antibody and Inhibitor for FGF, NT-3, NT-4/5, BDNF, IGF-I/II, NGF, PDGF and estrogen, respectively.
Chem., 268, 4244 (1993)]. Therefore, the neuroprotective effect of the test compounds is inhibited by treatment of MTA, this effect is depended by the signal transfer effect through the phosphorylation of FGF receptor.
The inhibitors of the various kinds of receptor were dissolved in the optimum concentration, and MTA was dissolved in the concentration of 7.5 mM, just before the using. 30 minutes before the treatment of the test compounds, the optimum concentration of each inhibitors or 0.75 mM of MTA was added, and the neuroprotective effect of the test compounds was determined by mean of MTT method.

[2] = system: primary cultures (neurons) from cerebral cortices of fetal Wistar rats; assay: Biological Test 4: neuroprotective inhibiting effect by calbindin antisense oligonucleotide (MTT); format: cell-based, rat; conditions: 300 μM glutamic acid
[3] = system: cerebral edema (water content of cerebral hemisphere), Wistar rats; assay: Biological Test 5: cerebral edema suppressing effect; format: in vivo; conditions: iv, 144 h, rat, post-TBI day 6, read-out: Cerebral edema suppressing rate (%); for inhibition in vivo at 3 mg/kg: 3 mg/kg intravenously just after the operation; for inhibition in vivo at 1 mg/kg: 1 mg/kg intravenously just after the operation
Experimental: Adult male Wistar rats weighing 210–230 g were used in the present study and housed in an artificially controlled environment with 12-hour light/dark cycle. Animals were anesthetized with pentobarbital sodium (50 mg/kg of body weight, i.p., Nembutal, Dinabbott, Japan) and placed in a stereotaxic apparatus. The skull was exposed and a hole was made on the parietal bone; 1.5 mm posterior and 0.8 mm lateral to the bregma. All procedures were performed under a surgery microscope to avoid excess irritation to the meninges and the underlying brain. A brass screw with a blunt tip (1.0 mm in diameter and 3.0 mm in length, Biomedica, Japan) was inset in the hole. The screw tip protruding intracranially was approximately 2.5 mm, which stuck into the parietal part of the right cerebrum through the meninges. In sham-operated rats, scalp was closed without attaching a screw to the hole. After surgery, all rats were kept in their original dens until sacrifice. Rats were allowed to feed chow and water ad libitum.
Under anesthesia the rat cerebral hemispheres of the target were processed for water content on post-TBI day 6 (n=6). The cerebral hemispheres dissected out were weighed, dried for 24 hours at 110 degree (Celsius) and then weighed again. The subtracted amount of the wet and dry weights was regarded as tissue water of the target, and utilized for the analysis of the cerebral edema.
The water content was calculated by using the following formula:
Water content (%) =[(wet weight of hemisphere—dry weight of hemisphere)/wet weight of hemisphere]×100
The test compounds were intravenously administered just after the operation via tail vein of the rats.

CalbindinD-28k = assay: Biological Test 3: CalbindinD-28k inducing effect (western blot); format: cell-based, rat; conditions: control (none-treated) = 100
Experimental: Test compounds were added 5 days after initiation of the incubation, and after 7 days of incubation, the protein was extracted with homogenized buffer solution [containing 20 mm of Tris-HCl (pH=7.4), 1 mM of EDTA, and 0.1 mM of phenylmethyl-sulfonyl fluoride].
In the table, the amount of induced CalbindinD-28k of the control group (none-treated group) was 4indicated as 100 percents.

[4] = system: primary cultures (neurons) from cerebral cortices of fetal Wistar rats; assay: Biological Test 1: neuroprotective effect against glutamate induced neuronal cell death (MTT); format: cell-based, rat; conditions: Compound: 1 μM; glutamate 1 mM; control group = 100%
Experimental: Cultures were maintained at 37 C. in a 90% air/10% CO2 humidified incubator. Glutamate was added to the culture at day 4 to the final concentration of 1 mM. […] MTT was dissolved in phosphate buffered saline (PBS, pH 7.4) at 5 mg/ml and filtered to sterilize and remove a small amount of insoluble residue present in some batches of MTT, and added to the cultures at a final concentration of 0.5 mg/ml.
The test compounds (1 μM) was added 24 hrs prior to glutamate treatment and simultaneously with glutamate.
Survival rate of living cells (%) =[(test compound group—glutamic acid treated group)÷(control group—glutamic acid treated group)]×100

SMILES | Survival Rate (%) (Compound: 1 μl & MTA treatment) [1] | Survival Rate (%) [antisense (+): 5 μM] ([2]; 0.1 μM) [%] | Survival Rate (%) [antisense (−)] ([2]; 0.1 μM) [%] | Survival Rate (%) [antisense (+): 5 μM] ([2]; 1 μM) [%] | Survival Rate (%) [antisense (−)] ([2]; 1 μM) [%] | inhibition in vivo at 3 mg/kg [3] [%] | Amount of induced CalbindineD-28k (% vs. control) (Compound: 1 μM) (CalbindinD-28k) | Survival Rate (%) (Compound: 1 μl) [4] | inhibition in vivo at 1 mg/kg [3] [%]
Cc1c(C)c(OCC(=O)N(C)C2CCN(CCc3ccccc3)CC2)c(C)c(C)c1N [Compound 6, 2-(4-Amino-2,3,5,6-tetramethylphenoxy)-N-methyl-N-(1-phenethyl-4-piperidinyl)acetamide] | 25 | 30 | 103 | 34 | 108 | 24.9 | 163 | 54 | 
Cc1c(C)c(OCC(=O)N(C)C2CCN(C(=O)c3ccccc3)CC2)c(C)c(C)c1N [Compound 8, 2-(4-Amino-2,3,5,6-tetramethylphenoxy)-N-(1-benzoyl-4-piperidinyl)-N-methylacetamide] | 24 |  |  |  |  |  |  | 78 | 14
Cc1c(C)c(OCC(=O)N(C)C2CCN(CC3CC3)CC2)c(C)c(C)c1N [Compound 12, 2-(4-Amino-2,3,5,6-tetramethylphenoxy)-N-(1-cyclo-propylmethyl-4-piperidinyl)-N-methylacetamide] | 33 |  |  |  |  | 14.7 |  | 54 | 
Cc1c(C)c(OCC(=O)N(C)C2CCN(Cc3ccc(C#N)cc3)CC2)c(C)c(C)c1N [Compound 18, 2-(4-Amino-2,3,5,6-tetramethylphenoxy)-N-[1-(4-cyano-benzyl)-4-piperidinyl]-N-methylacetamide] | 57 |  |  |  |  |  |  | 91 | 22.1
CCCCN1CCC(N(C)C(=O)C(C)Oc2c(C)c(C)c(N)c(C)c2C)CC1 (centres unmarked) [Compound 24, 2-(4-Amino-2,3,5,6-tetramethylphenoxy)-N-(1-butyl-4-piperidinyl)-N-methylpropanamide] | 22 |  |  |  |  |  |  | 61 | 10.6
Cc1c(C)c(OC(C)C(=O)N(C)C2CCN(CCN3CCOCC3)CC2)c(C)c(C)c1N (centres unmarked) [Compound 25, 2-(4-Amino-2,3,5,6-tetramethylphenoxy)-N-methy-N-{1-[2-(4-morpholinyl)ethyl]-4-piperidinyl}proanamide] | 16 |  |  |  |  |  |  | 87 | 19.1
